The term melting point denotes the temperature of the solid-liquid transition. The IC50 is the concentration at which inhibition is half-maximal. One may read the inhibition in vivo as how much of the control response was suppressed. Low values mean little suppression, high ones strong suppression.

In data set [1] the target is T1, human liver FBPase (Homo sapiens, UniProt P09467).
T1 construct: made in house; host or cells: E. coli BL21
T1 sequence (P09467 2-338 limits assumed): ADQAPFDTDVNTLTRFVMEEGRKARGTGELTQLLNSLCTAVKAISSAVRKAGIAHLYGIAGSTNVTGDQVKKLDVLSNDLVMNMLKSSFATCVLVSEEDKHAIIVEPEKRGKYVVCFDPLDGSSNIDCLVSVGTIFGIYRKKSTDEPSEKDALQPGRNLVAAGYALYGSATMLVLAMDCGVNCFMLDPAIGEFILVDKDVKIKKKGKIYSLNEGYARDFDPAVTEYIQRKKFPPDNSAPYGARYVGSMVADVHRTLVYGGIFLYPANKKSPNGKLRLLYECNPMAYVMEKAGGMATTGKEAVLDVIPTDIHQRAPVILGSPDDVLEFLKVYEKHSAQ
Nature of the data set: Inhibition of human liver FBPase. It counts as biochemical. Conditions: purified recombinant human liver FBPase, 0.150 mM fructose 1,6-bisphosphate, 37° C.; read-out: IC50 (hlFBPase). How it is done:
E. coli strain BL21 transformed with a human liver FBPase-encoding plasmid was obtained from Dr. M. R. El-Maghrabi at the State University of New York at Stony Brook. […] Enzymatic activity was measured spectrophotometrically in reactions that coupled the formation of product (fructose 6-phosphate) to the reduction of dimethylthiazoldiphenyltetrazolium bromide (MTT) via NADP^+ and phenazine methosulfate (PMS), using phosphoglucose isomerase and glucose 6-phosphate dehydrogenase as the coupling enzymes. Reaction mixtures (200 μl) were made up in 96-well microtitre plates, and consisted of 50 mM Tris-HCl, pH 7.4, 100 mM KCl, 5 mM EGTA, 2 mM MgCl2, 0.2 mM NADP, 1 mg/ml BSA, 1 mM MTT, 0.6 mM PMS, 1 unit/ml phosphoglucose isomerase, 2 units/ml glucose 6-phosphate dehydrogenase, and 0.150 mM substrate (fructose 1,6-bisphosphate). Inhibitor concentrations were varied from 0.01 μM to 10 μM. Reactions were started by the addition of 0.002 units of pure hlFBPase, and were monitored for 7 min. at 590 nm in a Molecular Devices Plate Reader (37° C.).

In data set [2] the test system is ZDF rats. Description: Blood glucose lowering in the Zucker Diabetic Fatty (ZDF) rat. It counts as in vivo. Conditions: for glucose lowering compared to vehicle-treated rats: 10 mg/kg oral in PEG-400, at 6 h, fasting ZDF rats; for duration of action: ZDF rat, oral, 2.1 at 10-300 mg/kg. Here is the method: Nine week old ZDF rats were fasted at 7 am and screened for hyperglycemia (BG>300 mg/dl) at 12:30 pm. […] Food was withheld for 6 to 9 h. Blood samples were collected intermittently from the tail vein and diluted 1:2 (v:v) in 20% glycerol-saline with 20 U/ml heparin. Blood glucose was determined by means of a Hemocue glucose analyzer (Hemocue Inc., Mission Viejo, Calif.) used according to the instructions of the manufacturer. Results were expressed as means ±standard errors of the mean (sem) for all values. Differences between treatment and vehicle-treated animals were evaluated using ANOVA with Dunnett's post-hoc analysis or Tukey-Kramer's post hoc analysis when all differences are compared. Differences are considered significant when p≦0.05.

Data set [3] deals with Sprague-Dawley rats. Nature of the data set: Glucose lowering following oral administration to the fasted, normal rat. It counts as in vivo. The conditions noted are these: maximum lowering relative to saline controls, 10 mg/kg oral, 18-h fasted rats. Here is the method:
Compounds were administered by oral gavage to 18-h fasted, Sprague-Dawley rats (250-300 g, n=3/4/group) at a dose of 10 mg/kg. Phosphonic acids (active moieties) were prepared in deionized water, and the solution adjusted to neutrality with sodium hydroxide. Prodrugs were dissolved in polyethylene glycol (mw 400). Blood samples were taken via tail vein nick immediately prior to dosing and at 1 h intervals thereafter. Blood glucose was analyzed by means of a HemoCue glucose analyzer (HemoCue Inc., Mission Viejo, Calif.). The table below indicates the maximum % glucose lowering achieved relative to control animals dosed with saline.

The target in data set [4] is T2, human NAT1 (Homo sapiens, UniProt P18440).
T2 construct: purchased BD Gentest (Bedford, Mass.); host or cells: insect cells
T2 sequence (P18440 1-290): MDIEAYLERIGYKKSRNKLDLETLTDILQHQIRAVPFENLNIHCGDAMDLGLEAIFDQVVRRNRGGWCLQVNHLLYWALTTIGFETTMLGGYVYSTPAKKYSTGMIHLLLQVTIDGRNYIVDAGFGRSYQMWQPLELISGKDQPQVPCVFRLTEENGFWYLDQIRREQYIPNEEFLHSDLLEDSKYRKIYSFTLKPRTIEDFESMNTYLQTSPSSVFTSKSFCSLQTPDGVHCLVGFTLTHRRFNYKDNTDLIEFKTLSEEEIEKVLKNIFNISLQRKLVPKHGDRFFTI
Nature of the data set: N-acetylation by recombinant human NAT1. Conditions: for % Conversion NAT1: compound 100 μM, 37° C., 120 min, N-acyl product by HPLC; for susceptibility to N-acetylation by NAT1, in words: human recombinant NAT1. It counts as in vitro ADME.
Experimental: (§1) Insect cell-expressed human NAT1 and NAT2 and control insect cytosol were obtained from BD Gentest (Bedford, Mass.). Compounds (100 μM) were incubated in 0.25 mL of NAT reaction cocktail consisting of 25 mM potassium phosphate pH 7.4 (at 25° C.), 1 mM EDTA, 1 mM DTT, 0.5 mM acetyl CoA, 5 mM acetyl-DL-carnitine, 20 u/mL acetyltransferase and either NAT1, NAT2 or control insect cytosol (0.1 mg/mL). Reactions were performed in an Eppendorf Thermomixer (37° C., 120 min.). At 0 and 120 min., 100 μl of each reaction was removed and added to a clean 1.7 mL tube containing 150 μl of 100% methanol. The tubes were vortexed and centrifuged at 14,000 rpm for 10 min. in an Eppendorf microcentrifuge (room temperature, 5 min., 14,000 rpm). The supernatants were analyzed by HPLC (Agilent 1100 series) using a Phenosphere C18 column (5 micron, 150×4.6 mm). The column was equilibrated with 20 mM potassium phosphate pH 4.5 or pH 6.2 (at 25° C.) and eluted with a linear gradient to 80% acetonitrile. The percent conversion of the compounds was calculated from the following equation: area of N-acyl product divided by (area of compound+area of N-acyl product), multiplied by 100.

Data set [5] concerns the target T3, human NAT2 (Homo sapiens, UniProt P11245).
T3 sequence (P11245 1-290): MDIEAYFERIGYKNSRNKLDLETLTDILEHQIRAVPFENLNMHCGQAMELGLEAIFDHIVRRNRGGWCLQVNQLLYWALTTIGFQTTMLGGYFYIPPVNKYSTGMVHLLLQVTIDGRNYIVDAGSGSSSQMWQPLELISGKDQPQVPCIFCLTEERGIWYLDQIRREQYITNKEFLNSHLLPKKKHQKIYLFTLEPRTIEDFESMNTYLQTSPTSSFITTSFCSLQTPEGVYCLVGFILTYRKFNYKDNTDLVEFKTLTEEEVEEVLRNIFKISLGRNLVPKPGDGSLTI
Conditions: for % Conversion NAT2: human, 120 min, 100 μM, pH 7.4.
Experimental: as §1

Data set [6] in a line: Variability of N-acetylation in human liver S9 fractions. Type of data set: in vitro ADME. Conditions: 100 μM, S9 10 mg/mL protein; donors with high or low N-acetylase activity. Here is the method: The reactions are incubated, processed, and analyzed as described in Example C.

A value given as a limit tells only on which side of the number the result lay.

`Nc1nc(-c2ccc(P(=O)(O)O)o2)c(C(=O)c2ccccc2)s1` [Compound 1.5, [5-(2-amino-5-benzoylthiazol-4-yl)furan-2-yl]phosphonic acid] had a melting point greater than 210 °C. In addition, the IC50 in data set [1] is 56 nM.
For `CCOC(=O)C(C)(C)NP(=O)(NC(C)(C)C(=O)OCC)c1ccc(-c2nc(N)sc2C(=O)C(C)(C)C)o1` [Compound 2.1], the melting point lay within 149 to 152 °C. In addition, in data set [2], the “glucose lowering compared to vehicle-treated rats” value was found to be 30% and the duration of action is recorded as greater than 9 h. For the same compound, in data set [3], testing at 10 mg/kg gave an inhibition in vivo of 68%. For the same compound, in data set [4], the “% Conversion NAT1” value is on record as 0% and the “susceptibility to N-acetylation by NAT1, in words” value (shortened to “susceptibility … by NAT1, in words”) is listed as “insusceptible”. Further, the half-inhibitory concentration (IC50) in data set [1] was greater than 100000 nM. In addition, in data set [5], the “susceptibility to N-acetylation by NAT2, in words” value (from here on “susceptibility … by NAT2, in words”) was “insusceptible” and the “% Conversion NAT2” value is 0%. In data set [6], the “conversion to N-acetylated metabolite in human liver S9 from various donors” value was “no conversion”.
In the case of `CCOC(=O)C(C)(C)NP(=O)(NC(C)(C)C(=O)OCC)c1ccc(-c2nc(N)sc2C(=O)C(C)(CC)CC)o1` [Compound 2.5], the melting point lay within 157 to 160 °C. This compound also returned an inhibition in vivo at 10 mg/kg in data set [3] of 15%.
With `CCC(C)(C)Cc1sc(N)nc1-c1ccc(P(=O)(O)O)o1` [Compound 3.3, reference compound], the “% Conversion NAT1” value in data set [4] came to 4.6%.
For `Nc1nc(-c2ccc(P(=O)(O)O)o2)c(CC2CCCC2)s1` [Compound 3.2, reference compound], the “% Conversion NAT1” value in data set [4] came to 22.3%.
Turning to `CCOC(=O)[C@H](C)NP(=O)(N[C@@H](C)C(=O)OCC)c1ccc(-c2nc(N)sc2CC(C)C)o1` [Compound 4.6, reference compound], in data set [2], the “glucose lowering compared to vehicle-treated rats” value was 14% and the duration of action is recorded as roughly 3 h. In addition, the “% Conversion NAT1” value in data set [4] is given as 6.3%. The IC50 in data set [1] was greater than 100000 nM. In data set [5], the “susceptibility … by NAT2, in words” value is reported as “extensively metabolized” and the “% Conversion NAT2” value is 62.4%. Also, the “conversion to N-acetylated metabolite in human liver S9 from various donors” value in data set [6] is “high levels”.
As for `CCC(C)(C)C(=O)c1sc(N)nc1-c1ccc(P(=O)(O)O)o1` [Compound 1.2, {5-[2-amino-5-(2,2-dimethyl-butyryl)thiazol-4-yl]furan-2-yl}phosphonic acid], in data set [4], the “% Conversion NAT1” value stood at 0% and the “susceptibility … by NAT1, in words” value was “not metabolized”. In data set [1], the IC50 was found to be 25 nM.
With `CC(C)c1sc(N)nc1-c1ccc(P(=O)(O)O)o1` [Compound 3.4, reference compound], in data set [4], the “% Conversion NAT1” value is 14.0%.
`CC(C)OC(=O)C(C)(C)NP(=O)(NC(C)(C)C(=O)OC(C)C)c1ccc(-c2nc(N)sc2C(=O)C(C)(C)C)o1` [Compound 2.3] gave an inhibition in vivo at 10 mg/kg in data set [3] of 27%. In data set [5], the “susceptibility … by NAT2, in words” value was “insusceptible” and the “% Conversion NAT2” value is listed as 0%.
In data set [3], `CCOC(=O)[C@H](C)NP(=O)(N[C@@H](C)C(=O)OCC)c1ccc(-c2nc(N)sc2C(=O)C(C)(C)C)o1` [Compound 2.2, 2-amino-5-(2,2-dimethylpropionyl)-4-{[5-(N,N′-((S)-1-ethoxycarbonyl)-ethyl)phosphonamido]furan-2-yl}thiazole] displayed an inhibition in vivo at 10 mg/kg of 25%. In addition, in data set [5], the “susceptibility … by NAT2, in words” value was “insusceptible” and the “% Conversion NAT2” value came to 0%.
`CCC(C)(CC)C(=O)c1sc(N)nc1-c1ccc(P(=O)(NC(C)(C)C(=O)OC(C)C)NC(C)(C)C(=O)OC(C)C)o1` [Compound 2.6] came in with a melting point of 160 to 164 °C. This compound showed an inhibition in vivo at 10 mg/kg in data set [3] of 12%.
`CCC(C)(CC)C(=O)c1sc(N)nc1-c1ccc(P(=O)(O)O)o1` [Compound 1.3, [5-(2-amino-5-(2-ethyl-2-methyl-butyryl)thiazol-4-yl)furan-2-yl]phosphonic acid]: the melting point is 202 to 205 °C. Also, in data set [4], the “% Conversion NAT1” value is given as 0% and the “susceptibility … by NAT1, in words” value was “not metabolized”. The IC50 in data set [1] came out at 18 nM.
As for `CCC(C)Cc1sc(N)nc1-c1ccc(P(=O)(O)O)o1` (centres unmarked) [Compound 3.5, reference compound], the “% Conversion NAT1” value in data set [4] amounted to 14.2%.
On to `Nc1nc(-c2ccc(P(=O)(O)O)o2)c(C(=O)c2ccc3c(c2)OCO3)s1` [Compound 1.19, [5-(2-amino-5-(3,4-methylenedioxybenzoyl)thiazol-4-yl)-furan-2-yl]phosphonic acid], for which, in data set [1], the IC50 was 53 nM.
Regarding `CCOC(=O)CNP(=O)(NCC(=O)OCC)c1ccc(-c2nc(N)sc2C(=O)C(C)(C)C)o1` [Compound 2.4], the melting point lay in the range of 86 to 88 °C. Besides, the inhibition in vivo at 10 mg/kg in data set [3] is 22%.
Regarding `Nc1nc(-c2ccc(P(=O)(O)O)o2)c(C(=O)c2ccc3ccccc3c2)s1` [Compound 1.29, [5-(2-amino-5-(2-naphthylcarbonyl)thiazol-4-yl)furan-2-yl]-phosphonic acid], the IC50 in data set [1] was 60 nM.
Same read-out and setting: the figure for `Nc1nc(-c2ccc(P(=O)(O)O)o2)c(C(=O)c2cccc(Cl)c2)s1` [Compound 1.12, [5-(2-amino-5-(3-chlorobenzoyl)thiazol-4-yl)furan-2-yl]-phosphonic acid] is 73 nM; for `Nc1nc(-c2ccc(P(=O)(O)O)o2)c(C(=O)c2ccc(-c3ccccc3)cc2)s1` [Compound 1.28, [5-(2-amino-5-(4-phenylbenzoyl)thiazol-4-yl)furan-2-yl]-phosphonic acid] it is 57 nM; for `Nc1ncnc2c1ncn2[C@@H]1O[C@H](COP(=O)(O)O)[C@@H](O)[C@H]1O` [AMP, reference compound] it is 1000 nM.
As to `COc1ccccc1C(=O)c1sc(N)nc1-c1ccc(P(=O)(O)O)o1` [Compound 1.14, [5-(2-amino-5-(2-methoxybenzoyl)thiazol-4-yl)furan-2-yl]-phosphonic acid], the IC50 in data set [1] amounted to 118 nM.
For `CC(=O)c1sc(N)nc1-c1ccc(P(=O)(O)O)o1` [Compound 1.4, [5-(2-amino-5-acetylthiazol-4-yl)furan-2-yl]phosphonic acid], the melting point is greater than 207 °C. Besides, the 50% inhibitory concentration (IC50) in data set [1] was determined as 66 nM.

The values are drawn from patent US20080070868A1, “Novel Thiazole Inhibitors of Fructose 1,6-bisphosphatase” (Metabasis Therapeutics, Inc., priority 2004, published 2008).
